# From ChEMBL document CHEMBL3885881, “DrugMatrix”
# Species on record: Rattus norvegicus
# Experiment: DrugMatrix - Regimen: Daily Repeat
# Assay type: toxicity, organism-based, Sprague-Dawley
# Parameters: regimen Daily Repeat, gender Male, age 6-8 weeks
# Conditions: in vivo, po, route oral GAVAGE, vehicle .5 % CMC; for ABSOLUTE BASOPHIL / ABSOLUTE EOSINOPHIL / ABSOLUTE LYMPHOCYTE / ABSOLUTE MONOCYTE / ABSOLUTE SEGMENTED NEUTROPHIL / BASOPHIL / EOSINOPHIL / ERYTHROCYTE COUNT / HEMATOCRIT / HEMOGLOBIN / LEUKOCYTE COUNT / LYMPHOCYTE / MEAN CORPUSCULAR HEMOGLOBIN / MEAN CORPUSCULAR HEMOGLOBIN CONCENTRATION / MEAN CORPUSCULAR VOLUME / MONOCYTE / NEUTROPHIL / NUCLEATED RED BLOOD CELLS / PLATELET COUNT: tissue Blood; for ALANINE AMINOTRANSFERASE / ALBUMIN / ALKALINE PHOSPHATASE / ASPARTATE AMINOTRANSFERASE / BLOOD UREA NITROGEN / CARBON DIOXIDE / CHLORIDE / CHOLESTEROL / CREATINE PHOSPHOKINASE / CREATININE / GLUCOSE / LACTATE DEHYDROGENASE / LIPASE / PHOSPHORUS / POTASSIUM / SODIUM / TOTAL BILIRUBIN / TOTAL PROTEIN / URIC ACID: tissue Plasma
# [1] = 0 mg/kg, 72 h, dose level Control, time 3 day
# [2] = 0 mg/kg, 120 h, dose level Control, time 5 day
# [3] = 25 mg/kg, 72 h, dose level Low, time 3 day
# [4] = 25 mg/kg, 120 h, dose level Low, time 5 day
structure (smiles),measurement,setting,value
CCCCC1C(=O)N(c2ccccc2)N(c2ccccc2)C1=O [PHENYLBUTAZONE],ABSOLUTE BASOPHIL,[1],0 CELLS/uL
same,ABSOLUTE EOSINOPHIL,[1],35.67 CELLS/uL
same,ABSOLUTE LYMPHOCYTE,[1],9125.17 CELLS/uL
same,ABSOLUTE MONOCYTE,[1],50.17 CELLS/uL
same,ABSOLUTE SEGMENTED NEUTROPHIL,[1],722.33 CELLS/uL
same,BASOPHIL,[1],0%
same,EOSINOPHIL,[1],0.33%
same,ERYTHROCYTE COUNT,[1],5.35 x10E6/uL
same,HEMATOCRIT,[1],33.58%
same,HEMOGLOBIN,[1],13.35 G/DL
same,LEUKOCYTE COUNT,[1],9.93 x10E3/uL
same,LYMPHOCYTE,[1],91.67%
same,MEAN CORPUSCULAR HEMOGLOBIN,[1],25 pg
same,MEAN CORPUSCULAR HEMOGLOBIN CONCENTRATION,[1],39.8 G/DL
same,MEAN CORPUSCULAR VOLUME,[1],62.77 fL
same,MONOCYTE,[1],0.67%
same,NEUTROPHIL,[1],7.33%
same,NUCLEATED RED BLOOD CELLS,[1],0 /100WBC
same,PLATELET COUNT,[1],866.17 x10E3/uL
same,ALANINE AMINOTRANSFERASE,[1],57.17 u/L
same,ALBUMIN,[1],4.22 G/DL
same,ALKALINE PHOSPHATASE,[1],391 u/L
same,ASPARTATE AMINOTRANSFERASE,[1],95.17 u/L
same,BLOOD UREA NITROGEN,[1],13.67 mg/dL
same,CARBON DIOXIDE,[1],30 mmol/L
same,CHLORIDE,[1],102.5 MEQ/L
same,CHOLESTEROL,[1],72 mg/dL
same,CREATINE PHOSPHOKINASE,[1],485.67 u/L
same,CREATININE,[1],0.27 mg/dL
same,GLUCOSE,[1],152 mg/dL
same,LACTATE DEHYDROGENASE,[1],372.67 u/L
same,LIPASE,[1],9.83 u/L
same,PHOSPHORUS,[1],12.47 mg/dL
same,POTASSIUM,[1],6.81 MEQ/L
same,SODIUM,[1],144.1 MEQ/L
same,TOTAL BILIRUBIN,[1],0.23 mg/dL
same,TOTAL PROTEIN,[1],5.93 G/DL
same,URIC ACID,[1],1.9 mg/dL
same,ABSOLUTE BASOPHIL,[2],0 CELLS/uL
same,ABSOLUTE EOSINOPHIL,[2],67.33 CELLS/uL
same,ABSOLUTE LYMPHOCYTE,[2],11419.17 CELLS/uL
same,ABSOLUTE MONOCYTE,[2],203.17 CELLS/uL
same,ABSOLUTE SEGMENTED NEUTROPHIL,[2],1327 CELLS/uL
same,BASOPHIL,[2],0%
same,EOSINOPHIL,[2],0.5%
same,ERYTHROCYTE COUNT,[2],5.65 x10E6/uL
same,HEMATOCRIT,[2],35.3%
same,HEMOGLOBIN,[2],13.98 G/DL
same,LEUKOCYTE COUNT,[2],13.02 x10E3/uL
same,LYMPHOCYTE,[2],88%
same,MEAN CORPUSCULAR HEMOGLOBIN,[2],24.78 pg
same,MEAN CORPUSCULAR HEMOGLOBIN CONCENTRATION,[2],39.63 G/DL
same,MEAN CORPUSCULAR VOLUME,[2],62.58 fL
same,MONOCYTE,[2],1.33%
same,NEUTROPHIL,[2],10.17%
same,NUCLEATED RED BLOOD CELLS,[2],0 /100WBC
same,PLATELET COUNT,[2],1213.83 x10E3/uL
same,ALANINE AMINOTRANSFERASE,[2],49.67 u/L
same,ALBUMIN,[2],4.28 G/DL
same,ALKALINE PHOSPHATASE,[2],362.33 u/L
same,ASPARTATE AMINOTRANSFERASE,[2],99 u/L
same,BLOOD UREA NITROGEN,[2],20.67 mg/dL
same,CARBON DIOXIDE,[2],26.33 mmol/L
same,CHLORIDE,[2],102 MEQ/L
same,CHOLESTEROL,[2],63.83 mg/dL
same,CREATINE PHOSPHOKINASE,[2],481.83 u/L
same,CREATININE,[2],0.21 mg/dL
same,GLUCOSE,[2],158 mg/dL
same,LACTATE DEHYDROGENASE,[2],656.33 u/L
same,LIPASE,[2],10.67 u/L
same,PHOSPHORUS,[2],12.27 mg/dL
same,POTASSIUM,[2],6.17 MEQ/L
same,SODIUM,[2],143.35 MEQ/L
same,TOTAL BILIRUBIN,[2],0.17 mg/dL
same,TOTAL PROTEIN,[2],6.13 G/DL
same,URIC ACID,[2],1.48 mg/dL
same,ABSOLUTE BASOPHIL,[3],0 CELLS/uL
same,ABSOLUTE EOSINOPHIL,[3],0 CELLS/uL
same,ABSOLUTE LYMPHOCYTE,[3],8397.33 CELLS/uL
same,ABSOLUTE MONOCYTE,[3],56.33 CELLS/uL
same,ABSOLUTE SEGMENTED NEUTROPHIL,[3],846.33 CELLS/uL
same,BASOPHIL,[3],0%
same,EOSINOPHIL,[3],0%
same,ERYTHROCYTE COUNT,[3],5.18 x10E6/uL
same,HEMATOCRIT,[3],33.27%
same,HEMOGLOBIN,[3],13.33 G/DL
same,LEUKOCYTE COUNT,[3],9.3 x10E3/uL
same,LYMPHOCYTE,[3],90.67%
same,MEAN CORPUSCULAR HEMOGLOBIN,[3],25.83 pg
same,MEAN CORPUSCULAR HEMOGLOBIN CONCENTRATION,[3],40.17 G/DL
same,MEAN CORPUSCULAR VOLUME,[3],64.37 fL
same,MONOCYTE,[3],0.67%
same,NEUTROPHIL,[3],8.67%
same,NUCLEATED RED BLOOD CELLS,[3],0 /100WBC
same,PLATELET COUNT,[3],982.67 x10E3/uL
same,ALANINE AMINOTRANSFERASE,[3],57 u/L
same,ALBUMIN,[3],4.4 G/DL
same,ALKALINE PHOSPHATASE,[3],377 u/L
same,ASPARTATE AMINOTRANSFERASE,[3],101.33 u/L
same,BLOOD UREA NITROGEN,[3],16.33 mg/dL
same,CARBON DIOXIDE,[3],29.33 mmol/L
same,CHLORIDE,[3],103 MEQ/L
same,CHOLESTEROL,[3],73 mg/dL
same,CREATINE PHOSPHOKINASE,[3],583.33 u/L
same,CREATININE,[3],0.17 mg/dL
same,GLUCOSE,[3],154.67 mg/dL
same,LACTATE DEHYDROGENASE,[3],337.67 u/L
same,LIPASE,[3],8.67 u/L
same,PHOSPHORUS,[3],12.6 mg/dL
same,POTASSIUM,[3],6.38 MEQ/L
same,SODIUM,[3],143.37 MEQ/L
same,TOTAL BILIRUBIN,[3],0.13 mg/dL
same,TOTAL PROTEIN,[3],5.87 G/DL
same,URIC ACID,[3],1.67 mg/dL
same,ABSOLUTE BASOPHIL,[4],0 CELLS/uL
same,ABSOLUTE EOSINOPHIL,[4],72 CELLS/uL
same,ABSOLUTE LYMPHOCYTE,[4],8896 CELLS/uL
same,ABSOLUTE MONOCYTE,[4],33 CELLS/uL
same,ABSOLUTE SEGMENTED NEUTROPHIL,[4],999 CELLS/uL
same,BASOPHIL,[4],0%
same,EOSINOPHIL,[4],0.67%
same,ERYTHROCYTE COUNT,[4],5 x10E6/uL
same,HEMATOCRIT,[4],31.63%
same,HEMOGLOBIN,[4],12.6 G/DL
same,LEUKOCYTE COUNT,[4],10 x10E3/uL
same,LYMPHOCYTE,[4],89%
same,MEAN CORPUSCULAR HEMOGLOBIN,[4],25.27 pg
same,MEAN CORPUSCULAR HEMOGLOBIN CONCENTRATION,[4],39.87 G/DL
same,MEAN CORPUSCULAR VOLUME,[4],63.4 fL
same,MONOCYTE,[4],0.33%
same,NEUTROPHIL,[4],10%
same,NUCLEATED RED BLOOD CELLS,[4],0 /100WBC
same,PLATELET COUNT,[4],635.33 x10E3/uL
same,ALANINE AMINOTRANSFERASE,[4],52 u/L
same,ALBUMIN,[4],4.53 G/DL
same,ALKALINE PHOSPHATASE,[4],362 u/L
same,ASPARTATE AMINOTRANSFERASE,[4],82.33 u/L
same,BLOOD UREA NITROGEN,[4],20 mg/dL
same,CARBON DIOXIDE,[4],25 mmol/L
same,CHLORIDE,[4],105.67 MEQ/L
same,CHOLESTEROL,[4],71.33 mg/dL
same,CREATINE PHOSPHOKINASE,[4],253 u/L
same,CREATININE,[4],0.26 mg/dL
same,GLUCOSE,[4],148 mg/dL
same,LACTATE DEHYDROGENASE,[4],409.67 u/L
same,LIPASE,[4],11 u/L
same,PHOSPHORUS,[4],11.9 mg/dL
same,POTASSIUM,[4],6.52 MEQ/L
same,SODIUM,[4],146.6 MEQ/L
same,TOTAL BILIRUBIN,[4],0.2 mg/dL
same,TOTAL PROTEIN,[4],6.2 G/DL
same,URIC ACID,[4],1.47 mg/dL
